Test results taken from patent US20240116921A1, “LACTAM (HETERO)[…] DERIVATIVES AS INHIBITORS OF ERBB2” (EnLiven Therapeutics, Inc., priority 2020, published 2024).
pIC50: −log10 of the molar value.

Experiments:
BT-474 = test: Cell viability assay (CellTiter Glo), BT-474; assay type: cell-based; settings: Homo sapiens; BT-474 cells, 72 hours, CellTiter Glo; read-out: IC50, cell viability, BT-474
MDA-MB-175VII = test: Cell viability assay (CellTiter Glo), MDA-MB-175VII; assay type: cell-based; settings: Homo sapiens; MDA MB 175VII cells, 72 hours, CellTiter Glo; read-out: IC50, cell viability, MDA MB 175VII
Protocol: (§1) Cells were treated with compounds, and cell viability was measured as a metric of kinase inhibition.
(§2) The Ba/F3 cell line is IL-3-dependent mouse cell line derived from the C3H mouse strain. Ba/F3 cell lines were engineered to express human ERBB2 or EGFR kinases, rendering the cells IL-3 independent. The lines were generated via retroviral transduction utilizing a Moloney murine leukemia virus (MMLV) promoter, and constructs are stably integrated into the cell genome. The sequences of the ERBB2 and EGFR genes used were NCBI Reference Sequences NM_004448.3 and NM_005228.3, respectively.
(§3) Similarly, Ba/F3 cell lines engineered to express EGFR, ERBB2, or ERBB2 mutants were grown, harvested, counted and seeded at 3000 cells per well in 96-well plates. A subset of wells contained media only (low control, “LC”).
(§4) Table B1 provides the growth media and number of cells seeded per well for the each cell line.
(§5) Plates were placed in a 37° C., 5% CO2 incubator for 72 hours. Plates were then removed from the incubator and equilibrated for 15 minutes at room temperature. 40 μl of CellTiter Glo reagent (Promega) was added to measure the relative level of metabolically active cells by quantifying intracellular ATP concentrations. Plates were incubated for 30 minutes at room temperature, and luminescence was measured. Percent viability was normalized to a vehicle control only using the following formula: % viability=100×(Lumsample−LumLC)/(LumHC−Lum^LC). Graphical curves were fitted using a nonlinear regression model with a sigmoidal dose response.

[1] = target: BaF3_EGFR-H773_V774insNPH (Homo sapiens, UniProt P00533, DUP771-773, cells depend on it); test: Cell viability assay, BaF3_EGFR-H773_V774insNPH; assay type: cell-based, mouse; settings: 72 hours, CellTiter Glo, read-out: IC50, cell viability, BaF3_EGFR-H773_V774insNPH
BaF3_EGFR-H773_V774insNPH, sequence (P00533 with tags, fused parts or gaps DUP771-773): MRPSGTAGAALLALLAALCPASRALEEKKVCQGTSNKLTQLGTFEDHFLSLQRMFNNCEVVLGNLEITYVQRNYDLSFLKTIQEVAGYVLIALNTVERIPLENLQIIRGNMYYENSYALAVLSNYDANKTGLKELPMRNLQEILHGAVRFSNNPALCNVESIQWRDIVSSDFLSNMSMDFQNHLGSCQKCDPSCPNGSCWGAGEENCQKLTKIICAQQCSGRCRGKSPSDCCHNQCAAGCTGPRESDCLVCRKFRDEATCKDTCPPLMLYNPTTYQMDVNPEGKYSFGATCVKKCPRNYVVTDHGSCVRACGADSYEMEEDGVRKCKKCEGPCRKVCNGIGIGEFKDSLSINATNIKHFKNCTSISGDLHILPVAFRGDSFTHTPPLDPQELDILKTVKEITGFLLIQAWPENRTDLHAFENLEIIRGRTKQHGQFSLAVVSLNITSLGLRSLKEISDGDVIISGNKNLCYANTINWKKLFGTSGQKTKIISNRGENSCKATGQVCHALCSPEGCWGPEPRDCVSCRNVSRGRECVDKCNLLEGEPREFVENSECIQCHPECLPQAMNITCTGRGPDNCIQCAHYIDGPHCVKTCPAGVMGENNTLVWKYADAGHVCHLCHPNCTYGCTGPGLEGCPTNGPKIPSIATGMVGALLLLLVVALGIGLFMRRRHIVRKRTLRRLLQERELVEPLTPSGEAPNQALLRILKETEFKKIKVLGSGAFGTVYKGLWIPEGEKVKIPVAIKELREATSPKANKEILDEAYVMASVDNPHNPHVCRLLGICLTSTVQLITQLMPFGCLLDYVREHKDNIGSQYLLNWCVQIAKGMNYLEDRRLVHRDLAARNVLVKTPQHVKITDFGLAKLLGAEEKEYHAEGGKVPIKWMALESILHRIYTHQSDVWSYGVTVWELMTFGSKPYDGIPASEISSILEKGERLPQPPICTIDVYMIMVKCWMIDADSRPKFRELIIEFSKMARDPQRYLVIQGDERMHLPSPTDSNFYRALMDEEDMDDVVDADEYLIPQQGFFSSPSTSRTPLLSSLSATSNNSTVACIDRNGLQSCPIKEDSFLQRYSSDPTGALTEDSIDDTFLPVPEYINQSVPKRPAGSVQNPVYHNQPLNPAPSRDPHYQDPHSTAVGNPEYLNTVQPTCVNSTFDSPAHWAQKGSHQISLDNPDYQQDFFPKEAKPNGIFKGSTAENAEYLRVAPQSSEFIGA
Protocol: as §1, §2, §3, §4
(§6) Plates were placed in a 37° C., 5% CO2 incubator for 72 hours. Plates were then removed from the incubator and equilibrated for 15 minutes at room temperature. 40 μl of CellTiter Glo reagent (Promega) was added to measure the relative level of metabolically active cells by quantifying intracellular ATP concentrations. Plates were incubated for 30 minutes at room temperature, and luminescence was measured. […]

Ba/F3 EGFR wt = Ba/F3 EGFR wt (Homo sapiens, UniProt P00533); test: Cell viability assay, Ba/F3 EGFR wt; assay type: cell-based, mouse; settings: Ba/F3 EGFR wt cells, 72 hours, CellTiter Glo; read-out: IC50, cell viability, Ba/F3 EGFR wt
Protocol: as §1, §2, §3, §4, §6

[2] = target: T1, phosphorylated ERBB2 (pERBB2) (Homo sapiens, UniProt P04626); test: Detection of phosphorylated ERBB2 (pERBB2) by ELISA in BT-474 cells; assay type: cell-based; settings: four hours incubation
T1 construct: endogenous in cells; host or cells: BT-474
T1 sequence (P04626 23-1255): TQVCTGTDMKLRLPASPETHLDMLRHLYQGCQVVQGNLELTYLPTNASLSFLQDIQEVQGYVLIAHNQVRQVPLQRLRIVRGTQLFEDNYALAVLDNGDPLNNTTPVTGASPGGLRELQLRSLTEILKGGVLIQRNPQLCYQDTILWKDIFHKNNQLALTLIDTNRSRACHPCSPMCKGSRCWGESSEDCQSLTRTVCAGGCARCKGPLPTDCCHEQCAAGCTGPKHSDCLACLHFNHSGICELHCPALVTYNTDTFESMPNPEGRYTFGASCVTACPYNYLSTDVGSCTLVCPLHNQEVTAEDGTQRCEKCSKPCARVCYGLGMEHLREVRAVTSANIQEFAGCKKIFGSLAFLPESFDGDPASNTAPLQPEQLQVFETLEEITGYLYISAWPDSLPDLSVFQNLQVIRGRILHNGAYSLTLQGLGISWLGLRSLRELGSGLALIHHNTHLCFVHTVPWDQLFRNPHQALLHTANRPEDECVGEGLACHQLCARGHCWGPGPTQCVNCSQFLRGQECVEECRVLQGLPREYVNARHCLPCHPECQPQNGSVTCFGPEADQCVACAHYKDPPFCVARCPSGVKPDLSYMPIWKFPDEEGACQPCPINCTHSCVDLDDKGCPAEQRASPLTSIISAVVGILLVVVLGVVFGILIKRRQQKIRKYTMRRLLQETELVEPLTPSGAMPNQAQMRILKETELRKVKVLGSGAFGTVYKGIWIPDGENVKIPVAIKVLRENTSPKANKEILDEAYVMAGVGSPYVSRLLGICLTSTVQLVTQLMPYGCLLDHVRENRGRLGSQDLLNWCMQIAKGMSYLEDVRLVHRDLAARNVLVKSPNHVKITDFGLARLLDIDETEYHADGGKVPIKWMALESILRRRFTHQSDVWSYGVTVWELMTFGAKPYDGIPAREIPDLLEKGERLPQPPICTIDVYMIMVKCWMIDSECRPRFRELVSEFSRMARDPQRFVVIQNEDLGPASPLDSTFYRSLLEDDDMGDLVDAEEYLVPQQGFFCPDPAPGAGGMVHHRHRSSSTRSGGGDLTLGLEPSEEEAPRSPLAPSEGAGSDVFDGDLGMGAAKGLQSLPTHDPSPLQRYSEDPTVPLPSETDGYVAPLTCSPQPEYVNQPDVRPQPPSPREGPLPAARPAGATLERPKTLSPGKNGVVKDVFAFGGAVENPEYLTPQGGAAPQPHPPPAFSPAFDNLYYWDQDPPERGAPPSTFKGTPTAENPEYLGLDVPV
In short: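 Phospho-ERBB2 in lysates was quantified by sandwich ELISA (A450, TMB) after 4 h compound exposure at 37 °C of BT-474 cells seeded at 2.0×10^4 per well. Compounds tested at 10 µM to 0.01 nM final in four-fold steps; activity normalized to DMSO (0.1%) high and cell-free low controls.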

[3] = target: BaF3-EGFR-V769_D770insASV (Homo sapiens, UniProt P00533, DUP767-769, cells depend on it); test: Cell viability assay, BaF3-EGFR-V769_D770insASV; assay type: cell-based, mouse; settings: 72 hours, CellTiter Glo, read-out: IC50, cell viability, BaF3-EGFR-V769_D770insASV
Protocol: as §1, §2, §3, §4, §6

[4] = target: BaF3_EGFR-D770-N771insSVD (Homo sapiens, UniProt P00533, DUP768-770, cells depend on it); test: Cell viability assay, BaF3_EGFR-D770-N771insSVD; assay type: cell-based, mouse; settings: 72 hours, CellTiter Glo, read-out: IC50, cell viability, BaF3_EGFR-D770-N771insSVD
BaF3_EGFR-D770-N771insSVD, sequence (P00533 with tags, fused parts or gaps DUP768-770): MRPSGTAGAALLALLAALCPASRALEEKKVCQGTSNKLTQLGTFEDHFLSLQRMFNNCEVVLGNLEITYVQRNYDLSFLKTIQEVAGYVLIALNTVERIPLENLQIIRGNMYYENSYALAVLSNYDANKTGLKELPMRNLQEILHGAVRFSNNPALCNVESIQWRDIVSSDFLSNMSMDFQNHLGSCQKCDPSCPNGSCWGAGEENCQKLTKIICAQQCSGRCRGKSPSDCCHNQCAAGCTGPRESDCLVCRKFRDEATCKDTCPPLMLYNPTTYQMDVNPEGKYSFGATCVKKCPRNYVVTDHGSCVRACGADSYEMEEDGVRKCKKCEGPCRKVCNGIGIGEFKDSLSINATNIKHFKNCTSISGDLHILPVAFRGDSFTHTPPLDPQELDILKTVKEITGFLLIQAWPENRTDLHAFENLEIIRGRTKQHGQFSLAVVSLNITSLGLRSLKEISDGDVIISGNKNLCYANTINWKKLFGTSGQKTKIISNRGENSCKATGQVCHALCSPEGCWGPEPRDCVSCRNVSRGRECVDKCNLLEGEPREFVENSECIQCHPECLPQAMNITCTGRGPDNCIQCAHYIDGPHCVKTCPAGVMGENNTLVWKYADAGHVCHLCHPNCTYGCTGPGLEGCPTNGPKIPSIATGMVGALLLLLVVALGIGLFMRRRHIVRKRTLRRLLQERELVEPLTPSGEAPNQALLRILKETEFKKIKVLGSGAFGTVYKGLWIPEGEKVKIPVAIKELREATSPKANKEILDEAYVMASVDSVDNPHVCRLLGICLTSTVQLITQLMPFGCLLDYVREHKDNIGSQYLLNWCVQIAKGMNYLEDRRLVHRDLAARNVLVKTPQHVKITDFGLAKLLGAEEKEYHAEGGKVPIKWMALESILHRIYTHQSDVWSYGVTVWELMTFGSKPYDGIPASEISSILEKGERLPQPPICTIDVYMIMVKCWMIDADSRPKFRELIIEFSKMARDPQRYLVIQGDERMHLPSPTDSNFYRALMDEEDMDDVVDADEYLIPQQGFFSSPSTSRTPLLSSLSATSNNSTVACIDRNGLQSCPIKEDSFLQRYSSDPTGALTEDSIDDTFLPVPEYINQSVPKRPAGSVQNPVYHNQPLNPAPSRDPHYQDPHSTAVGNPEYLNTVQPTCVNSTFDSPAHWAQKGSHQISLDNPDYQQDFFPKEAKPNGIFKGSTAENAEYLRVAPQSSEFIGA
Protocol: as §1, §2, §3, §4, §6

Ba/F3 ERBB2-V777L = Ba/F3 ERBB2-V777L (Homo sapiens, UniProt P04626, V777L, cells depend on it); test: Cell viability assay, Ba/F3 ERBB2-V777L; assay type: cell-based, mouse; settings: 72 hours, CellTiter Glo, read-out: IC50, cell viability, Ba/F3 ERBB2-V777L
Ba/F3 ERBB2-V777L, sequence (P04626 whole entry V777L): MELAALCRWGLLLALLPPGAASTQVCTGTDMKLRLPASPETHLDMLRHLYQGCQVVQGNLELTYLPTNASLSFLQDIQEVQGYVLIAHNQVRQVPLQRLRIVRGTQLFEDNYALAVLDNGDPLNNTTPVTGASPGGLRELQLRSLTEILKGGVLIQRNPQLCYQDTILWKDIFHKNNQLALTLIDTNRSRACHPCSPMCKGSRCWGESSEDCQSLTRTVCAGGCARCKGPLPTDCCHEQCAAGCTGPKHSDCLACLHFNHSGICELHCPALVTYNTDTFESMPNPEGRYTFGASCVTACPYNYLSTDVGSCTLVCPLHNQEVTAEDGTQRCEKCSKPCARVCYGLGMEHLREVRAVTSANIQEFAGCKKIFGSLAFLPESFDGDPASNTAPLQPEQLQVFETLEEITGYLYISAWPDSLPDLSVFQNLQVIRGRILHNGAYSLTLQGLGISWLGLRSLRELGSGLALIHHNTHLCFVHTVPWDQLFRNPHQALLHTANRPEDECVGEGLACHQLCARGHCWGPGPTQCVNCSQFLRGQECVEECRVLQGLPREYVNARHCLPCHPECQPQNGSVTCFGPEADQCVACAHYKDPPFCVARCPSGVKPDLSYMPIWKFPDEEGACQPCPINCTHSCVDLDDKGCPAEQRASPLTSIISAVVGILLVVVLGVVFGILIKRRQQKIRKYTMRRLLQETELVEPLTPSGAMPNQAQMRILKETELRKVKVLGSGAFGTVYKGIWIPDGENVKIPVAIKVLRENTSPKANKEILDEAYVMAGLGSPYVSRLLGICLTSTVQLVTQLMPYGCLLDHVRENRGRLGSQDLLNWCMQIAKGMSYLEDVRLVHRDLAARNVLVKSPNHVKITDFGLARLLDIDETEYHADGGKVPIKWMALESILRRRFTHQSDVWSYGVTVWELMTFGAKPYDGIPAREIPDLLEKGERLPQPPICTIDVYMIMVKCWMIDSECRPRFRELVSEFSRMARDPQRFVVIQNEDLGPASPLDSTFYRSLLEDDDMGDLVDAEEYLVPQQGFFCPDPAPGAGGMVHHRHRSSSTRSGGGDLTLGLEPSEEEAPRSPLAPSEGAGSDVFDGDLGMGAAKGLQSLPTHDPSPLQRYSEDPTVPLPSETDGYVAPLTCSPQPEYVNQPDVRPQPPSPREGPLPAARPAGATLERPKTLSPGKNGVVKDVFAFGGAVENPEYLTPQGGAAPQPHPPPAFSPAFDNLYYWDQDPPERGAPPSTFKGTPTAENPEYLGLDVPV
Protocol: as §1, §2, §3, §4, §5

SMILES | pIC50 (BT-474) | pIC50 (MDA-MB-175VII) | GI50 [1] [nM] | GI50 (Ba/F3 EGFR wt) [nM] | pIC50 [2] | GI50 [3] [nM] | GI50 [4] [nM] | GI50 (Ba/F3 ERBB2-V777L) [nM]
C=C1CCN(c2ccc3ncnc(Nc4ccc(Oc5ccn6ncnc6c5)c(C)c4)c3c2)C1=O [Compound 1, 1-[4-[(3-methyl-4-[[1,2,4]triazolo[1,5-a]pyridin-7-yloxy]phenyl)amino]quinazolin-6-yl]-3-methylidenepyrrolidin-2-one] | 8.13 | 7.82 | 9830 | > 10000 | 8.10 | 4510 | 4060 | 0.41
C=C1CCN(c2ccc3ncnc(Nc4ccc(Oc5ccn6ccnc6c5)c(C)c4)c3c2)C1=O [Compound 4, 1-[4-[(4-[imidazo[1,2-a]pyridin-7-yloxy]-3-methylphenyl)amino]quinazolin-6-yl]-3-methylidenepyrrolidin-2-one] | 7.79 |  |  |  | 8.29 |  |  | 1.3
